Assay results as given in patent publication US20140086977A1, “TIGHT JUNCTIONS MODULATORS” (THE UNIVERSITY OF MANCHESTER, priority 2011, published 2014).
“Also recorded” adds a separate entry of the source.

What was measured:
[1] = test system: Normal human epidermal keratinocytes (NHEK); assay: TEER in NHEK treated with plant polyphenols; assay type: cell-based; settings: for Effect on TEER at day four vs untreated control: 100 μM myricetin or Kaempferol, quercetin concentration not stated, Mann Whitney U test
Description: Normal human epidermal keratinocytes (NHEK) were purchased from Promocell (Heidelberg, Germany) and grown on Thincerts™ in proprietary medium containing 0.06 mM calcium chloride. ‘Thincerts’ are small chambers containing a filter on which the cells are grown. The Thincert™ is housed within a conventional 12 well tissue culture plate. This arrangement allows treatment of the cells from either the basal or apical side.
When the cells were confluent, the medium was replaced with new medium but containing 1.8 mM calcium chloride. This induces tight junction formation in NHEK. In experiments where plant polyphenols were tested, a known volume of the plant polyphenol (dissolved in vehicle at a known concentration) was added to both apical and basal chambers of the Thincert™ at the same time as the medium was replaced. In this experiment the plant polyphenols quercetin, Myricetin and Kaempferol were tested.
Tight junctions form over 4 days and this was monitored by measuring the transepithelial electrical resistance (TEER) using an EVOM (world precision instruments). TEER was measured every 24 hours post addition of the test polyphenols and the TEER of control untreated cell monolayers was compared to that of treated cell monolayers.
The methodology set out in Example 6 was repeated, using quercetin at different concentrations. The results are shown in FIG. 8 in which the first bar represents the results for control—untreated cells, the second bar represents the results for cells treated with 100 μM quercetin and the third bar represents the results for cells treated with 10 μM quercetin (see key below). The y-axis represents TEER at 4 days (Ohms.cm^2).

[2] = test system: Normal primary human keratinocytes (NHEK); assay: Transepithelial electrical resistance (TEER) in NHEK after calcium switch, UCA isomers; assay type: cell-based; settings: for Effect on TEER: differentiated NHEK vs untreated cells
From the text: Transepithelial electrical resistance (TEER) measurements are used in epithelial biology as a marker of TJ integrity. Electrical resistance is a measure of how easily ions can pass through a particular transport route. The higher the resistance the harder it is for ions to pass. Whilst the TEER of a cell monolayer is a function of both transcellular and paracellular transport routes, the value of TEER is, however, dominated by the contribution from the paracellular route. TEER of monolayers can be measured using an Epithelial Voltmeter (for example EVOM from WPI Ltd). This instrument passes a current across a monolayer of cells and calculates the resistance according to Ohm's law (V=IR, where V is potential difference, I is current and R is resistance). Therefore increased TEER means […] TJ function. Preferably TEER measurements are carried out at room temperature.
Normal primary human keratinocytes (NHEK) were grown on Thincerts™ in medium containing 0.6 mM calcium until the cells were confluent. TJ formation was the induced by calcium switch and 25 ug/ml cis-UCA was added to the cells which were incubated for 96 hours and the transepithelial electrical resistance (TEER) measured every 24 hours post calcium switch.
(§1) Exposure of human skin to solar simulated ultraviolet radiation (UVR) transiently impairs skin barrier function (SBF) which recovers over a period of 2-14 days. […] Trans-urocanic acid (trans-UCA) is a major epidermal chromophore located in the stratum corneum and exposure of human skin to UVR photoisomerises trans-UCA to cis-UCA. In a previous Affymetrix study, the Cld-1 encoding gene, CLDN1, was listed as one of several markers induced by cis- but not trans-UCA, in normal human epidermal keratinocytes (NHEK) (Kaneko et al, J Immunol 2008, 181, 217-24). We therefore examined UCA isomer-dependent changes in Cld-1 protein expression (assessed by immunoblotting) and TJ function (assessed as transepithelial electrical resistance; TEER) in differentiated NHEK in vitro.

claudin 1 = assay: Claudin 1 protein levels in NHEK by immunoblot; assay type: cell-based, human; settings: for Effect on claudin 1 protein levels: 24-96 hours post treatment, immunoblot
Description: Normal primary human keratinocytes (NHEK) were grown in proprietary medium containing 0.6 mM calcium chloride. When the cells reached confluence they were placed in medium containing 1.8 mM calcium chloride (calcium switch) and either cis-UCA, irradiated trans-UCA, unirradiated trans-UCA or control medium. Cells were the incubated for 96 hours during which time TJs form. At 24, 48, 72 or 96 hours post treatment, cells were harvested and claudin 1 levels analysed by immunoblot.
NHEK (growing as described above) were treated with different concentrations of cis-UCA for 48 hours after which claudin 1 levels were examined using immunoblotting.
as §1

[3] = test system: claudins 1 and 4, occludin and ZO-1 mRNA; assay: Real-time PCR of TJ gene message levels in NHEK; assay type: cell-based, human; settings: 25 ug/ml, 48 hours, vs non-treated keratinocytes
Description: Normal primary human keratinocytes (NHEK) were grown in proprietary medium containing 0.6 mM calcium chloride. When the cells reached confluence they were placed in medium containing […] calcium chloride (calcium switch) and 25 ug/ml cis-UCA was added. Cells were incubated for 48 hours and message levels for the TJ genes claudins 1 and 4, occludin and ZO-1 were quantified using real-time PCR using non-treated keratinocytes as a control (FIG. 3).

SMILES: O=c1c(O)c(-c2ccc(O)c(O)c2)oc2cc(O)cc(O)c12 [quercetin]
- Effect on TEER at day four vs untreated control [1]: significantly increase
- Dose dependence of TEER at 4 days ([1]; 100 μM vs 10 μM quercetin): higher quantities of quercetin have a more beneficial effect

SMILES: O=C(O)/C=C/c1cnc[nH]1 [trans-UCA, trans-urocanic acid, reference compound]
- Effect on TEER [2]: no effect
- Effect on claudin 1 protein levels (claudin 1): no effect
- Effect on claudin 1 protein levels (claudin 1; listed as unirradiated trans-UCA): does not; also recorded: no effect

SMILES: O=C(O)/C=C\c1c[nH]cn1 [cis-UCA, cis-urocanic acid]
- TEER higher than in untreated cells ([2]; 25 ug/ml cis-UCA, up to 96 hours post calcium switch): approximately 150 ohms.cm^2
- Effect on TEER [2]: higher
- TEER higher than in untreated cells ([2]; differentiated NHEK, n=6, p=0.004): ~150 ohms/cm^2
- Levels of mRNA for claudins 1, 4, occludin and ZO-1 [3]: increases
- Effect on claudin 1 protein levels (claudin 1): time dependent increase
- Effect on claudin 1 protein levels (claudin 1; listed as Cis-UCA): time and concentration dependent increase
- Dose dependence of claudin 1 protein levels (claudin 1; 48 hours, greatest at 25 ug/ml): dose dependent increase
- Increase in Cld-1 protein (claudin 1; maximal 48 h post-treatment with 25 μg/ml, n=4, p=0.02): ~3 fold

SMILES: O=c1c(O)c(-c2ccc(O)cc2)oc2cc(O)cc(O)c12 [Kaempferol]
- Time to barrier formation ([1]; 100 μM): reduces
- Effect on TEER at day four vs untreated control [1]: increases

SMILES: O=c1c(O)c(-c2cc(O)c(O)c(O)c2)oc2cc(O)cc(O)c12 [Myricetin]
- Effect on TEER at day four vs untreated control [1]: significantly increase
